# Results reported in patent US4708871A, “Antigenically active amino acid sequences” (priority 1983, dated 1987).
# Where “and” joins values, the source holds several entries; their conditions need not be identical. Equal values may be shown once. No end group written: not given here.
# System: antiserum known to react with the original sequence (FMDV Type A10)
# Type: binding, rabbit
substance,measurement,value
GDLGSI [GDLGSI],"Antibody-binding activity, percentage of the mean activity of the six parent sequences",105 percentage and 118 percentage and 88 percentage and 98 percentage and 85 percentage and 106 percentage
